Assay results: PMC7767178 (International Journal of Molecular Sciences, 2020)
Values after ≈ are worked out from the molar mass of the structure shown.

Legend:
[1] = system: A. veronii ACCC61732 genomic DNA; assay: CD spectra of genomic DNA with peptides; type: binding; details: mass ratios 2.5 and 10.0, 10 min, room temperature
Protocol: CD spectra were performed to examine the secondary structure of genomic DNA from A. veronii ACCC61732 after incubation with peptides. […] The mixtures were loaded into a cuvette of 1.0-mm path length and scanned from 190 to 330 nm at 25 °C using a Pistar π-180 CD spectrometer (Applied Photophysics Ltd., Surry, UK).

mice = assay: Toxic effect on mice; type: in vivo; details: reason for exclusion from the mouse models
pepsin = details: pH 2
in vitro = details: mouse, 25% mouse serum
[2] = system: A. veronii ACCC61732 biofilm; type: cell-based; details: 16× MIC, 24 h, crystal violet
Protocol: Mid-log phase A. veronii ACCC61732 cells (1 × 10^8 CFU/mL, 180 µL) were added into the 96-well plates. […] Effects of peptides on biofilms formation was evaluated by the crystal violet staining as previously described. The untreated bacteria were used as the negative control (A) and fresh TSB medium was used as the blank control (A0). The inhibition effect of peptides on early biofilms was determined by the following equation: Biofilms (%) = [(Apeptides − A0)/(A − A0)] × 100.

[3] = system: Pseudomonas aeruginosa and Gram-positive bacteria such as Staphylococcus aureus and S. hyicus; assay: MIC, range over strains; type: cell-based; details: range over the strains of Table 2
Text: All experiments were repeated three times.

A. veronii ACCC61732 [4] = type: physicochemical; details: MIC against A. veronii ACCC61732; for MIC after treatment at 4 °C: 1 h at 4 °C; for MIC after treatment at 20 °C: 1 h at 20 °C; for MIC after treatment at 40 °C: 1 h at 40 °C; for MIC after treatment at 60 °C: 1 h at 60 °C; for MIC after treatment at 80 °C: 1 h at 80 °C
Protocol: The thermal stability of peptides was determined after treatment for 1 h at different temperatures (4, 20, 40, 60, 80, and 100 °C). The relative antibacterial activity of peptides against A. veronii ACCC61732 was determined by the MIC assay.

A. veronii ACCC61732 [5] = assay: pH stability, MIC read-out; type: physicochemical; details: MIC against A. veronii ACCC61732; for MIC after treatment at pH 10: glycine-NaOH buffer pH 10.0, 3 h; for MIC after treatment at pH 6: sodium phosphate buffer pH 6.0, 3 h; for MIC after treatment at pH 8: tris-HCl buffer pH 8.0, 3 h
Protocol: To evaluate pH stability, peptides were dissolved in glycine-HCl buffer (pH 2.0), sodium acetate buffer (pH 4.0), sodium phosphate buffer (pH 6.0), tris-HCl buffer (pH 8.0), or glycine-NaOH buffer (pH 10.0) and treated for 3 h. The MIC values of peptides against A. veronii ACCC61732 were measured as described above.

A. veronii ACCC61732 [6] = details: 3 h, MIC against A. veronii ACCC61732; for MIC after physiological salt 50 mM: NaCl 50 mM; for MIC after physiological salt 100 mM: NaCl 100 mM
Protocol: Similarly, salt stability of peptides was determined after a 3 h-incubation in different NaCl solutions (50, 100, 200, 300, 400, and 500 mM). […] The activity of peptides against A. veronii ACCC61732 was determined as described above. The untreated peptides were used as the positive control and buffers alone were used as the negative control. All assays were conducted in triplicate.

mouse erythrocytes = assay: Hemolysis; type: cell-based; details: 256 μg/mL; 8% mouse erythrocyte suspension, 37 °C, 1 h, absorbance 540 nm
Protocol: To determine the hemolysis of peptides, eyeball blood was collected from 6-week-old SPF ICR mice. The blood was centrifuged at 4 °C for 10 min (1500 rpm), washed three times with 0.9% physiological saline, and diluted to 8% suspension. […] Red blood cell suspensions and peptide solutions (100 μL) were mixed in 96-well plates, centrifuged at 4 °C for 5 min (1500 rpm), and incubated at 37 °C for 1 h. The supernatant was added into a 96-well plate and the UV absorbance was measured at 540 nm using a microplate reader. Physiological saline and 0.1% Triton X-100 were used as 0% and 100% hemolytic controls, respectively. The hemolytic ratio was calculated as follows: Hemolysis (%) = [(Abspeptide − Abssaline)/(Abs0.1%Triton X-100 − Abssaline)] × 100% [38].

RAW 264.7 cells = assay: Cytotoxicity, MTT; type: cell-based; details: 24 h
Protocol: To determine the cytotoxicity of peptides, RAW 264.7 cells (2.5 × 10^4 cells/well) were seeded into 96-well plates and incubated for 24 h. […] The cells were dyed with 3-(4,5-dimethyl-2-thiazolyl)-2,5-diphenyl-2-H-tetrazolium bromide (MTT) (5 mg/mL) for 4 h, incubated with dimethyl sulfoxide (DMSO), and measured at 570 nm. PBS was used as controls. The cell survival rate was calculated by the equation: Survival rate (%) = (Abspeptide/AbsPBS) × 100 [25].

A. veronii ACCC61732 [7] = assay: SEM morphology; type: cell-based; details: 4× MIC, 2 h
Protocol: MDR A. veronii ACCC61732 cells were cultured in MHB at 37 °C (250 rpm) until the mid-log phase of growth, harvested by centrifugation, and diluted with 0.01 M PBS (pH 7.4) to 0.5–5 × 10^8 CFU/mL. […] For SEM, the samples were harvested (5000× g, 5 min) and fixed with 2.5% glutaraldehyde at 4 °C overnight. The cells were dehydrated for 10 min in a graded ethanol series (50%, 70%, 90%, and 100%) and transferred to a mixture of 100% ethanol, tertiary butanol, and absolute tertiary butanol (v:v = 1:1) for 15 min. Finally, the specimens were dehydrated in a critical point dryer with liquid CO2, coated with gold–palladium, and observed using a QUANTA200 (FEI, Philips, Amsterdam, Netherlands).

[8] = 37 °C
proteinase K = proteinase K (Parengyodontium album, UniProt P06873); details: proteinase K 40 mAU/mg, pH 7.0, peptide:enzyme 10:1 (w/w); MIC against A. veronii ACCC61732; triplicate
proteinase K, sequence (P06873 106-384): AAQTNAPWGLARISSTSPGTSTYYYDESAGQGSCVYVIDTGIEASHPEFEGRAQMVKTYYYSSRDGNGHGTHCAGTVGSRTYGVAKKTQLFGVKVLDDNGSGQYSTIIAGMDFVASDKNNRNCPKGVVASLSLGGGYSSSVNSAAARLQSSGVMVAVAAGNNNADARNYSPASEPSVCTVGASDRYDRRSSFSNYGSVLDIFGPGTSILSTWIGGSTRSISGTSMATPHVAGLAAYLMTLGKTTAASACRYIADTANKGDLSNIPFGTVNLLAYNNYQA

SMILES | effect on CD spectrum of genomic DNA [1] | MIC after pepsin treatment (pepsin) | remaining at 2 h (in vitro) [%] | remaining at 4.5 h (in vitro) [%] | remaining at 6 h (in vitro) [%] | MIC after treatment at 4 °C (A. veronii ACCC61732 [4]) [µg/mL] | MIC after treatment at 20 °C (A. veronii ACCC61732 [4]) [µg/mL] | MIC after treatment at 40 °C (A. veronii ACCC61732 [4]) [µg/mL] | MIC after treatment at 60 °C (A. veronii ACCC61732 [4]) [µg/mL] | MIC after treatment at 80 °C (A. veronii ACCC61732 [4]) [µg/mL] | MIC after treatment at pH 10 (A. veronii ACCC61732 [5]) [μg/mL] | MIC after treatment at pH 6 (A. veronii ACCC61732 [5]) [μg/mL] | MIC after treatment at pH 8 (A. veronii ACCC61732 [5]) [μg/mL] | MIC after physiological salt 50 mM (A. veronii ACCC61732 [6]) [μg/mL] | MIC after physiological salt 100 mM (A. veronii ACCC61732 [6]) [μg/mL] | further results
CC(C)[C@@H]1NC(=O)CNC(=O)[C@H](CC(N)=O)NC(=O)[C@H](CCCNC(=N)N)NC(=O)[C@H](Cc2ccc(O)cc2)NC(=O)[C@H](C(C)C)NC(=O)[C@@H](NC(=O)[C@@H](NC(=O)[C@H](CC(N)=O)NC(=O)[C@H](Cc2c[nH]c3ccccc23)NC(=O)[C@H](C)NC(=O)[C@H](Cc2ccccc2)NC(=O)[C@H](CCCN)N=C(N(C)C)N(C)C)C(C)C)CSSC[C@@H](C(=O)N[C@@H](Cc2c[nH]cn2)C(=O)N[C@@H](CCCNC(=N)N)C(=O)N[C@@H](CCCNC(=N)N)C(=O)N[C@@H](C)C(=O)N[C@@H](CC(N)=O)C(N)=O)NC(=O)[C@H](C(C)C)NC(=O)[C@H](CCCNC(=N)N)NC1=O (stereo in doubt) [Guo-N6NH2] | do not affect the double helix of genomic DNA | 8 µg/mL (≈ 3.04 µM) | 84 | 56.8 | 44.2 | – | – | – | – | – | – | – | – | – | – | toxicity in mice (mice): toxic effect on mice
O=C(O)c1cn(C2CC2)c2cc(N3CCNCC3)c(F)cc2c1=O [CIP, ciprofloxacin, reference compound] | – | – | – | – | – | – | – | – | – | – | – | – | – | – | – | inhibition of early biofilm [2]: 70.75%
CC(C)[C@H]1NC(=O)CNC(=O)[C@@H](CC(N)=O)NC(=O)[C@@H](CCCNC(=N)N)NC(=O)[C@@H](Cc2ccc(O)cc2)NC(=O)[C@@H](C(C)C)NC(=O)[C@H](NC(=O)[C@H](NC(=O)[C@@H](CC(N)=O)NC(=O)[C@@H](Cc2c[nH]c3ccccc23)NC(=O)[C@@H](C)NC(=O)[C@@H](Cc2ccccc2)NC(=O)CN)C(C)C)CSSC[C@H](C(=O)N[C@H](Cc2c[nH]cn2)C(=O)N[C@H](CCCNC(=N)N)C(=O)N[C@H](CCCNC(=N)N)C(=O)N[C@H](C)C(=O)N[C@H](CC(N)=O)C(N)=O)NC(=O)[C@@H](C(C)C)NC(=O)[C@@H](CCCNC(=N)N)NC1=O [DN6NH2] | elliptic intensity of the positive band declined | retained the antibacterial activity | 92.7 | 78.4 | – | 4 (≈ 1.62 µM) | 4 (≈ 1.62 µM) | 4 (≈ 1.62 µM) | 4 (≈ 1.62 µM) | 4 (≈ 1.62 µM) | 4 | 4 | 4 | 4 | 4 | MICs against Pseudomonas aeruginosa and Gram-positive bacteria such as S. aureus and S. hyicus [3]: 1.62 to 6.46 µM; MIC after physiological salt 200 mM (A. veronii ACCC61732 [6]; NaCl 200 mM): 4 μg/mL; MIC after physiological salt 300 mM (A. veronii ACCC61732 [6]; NaCl 300 mM): 4 μg/mL; MIC after physiological salt 400 mM (A. veronii ACCC61732 [6]; NaCl 400 mM): 4 μg/mL; MIC after physiological salt 500 mM (A. veronii ACCC61732 [6]; NaCl 500 mM): 4 μg/mL; hemolysis (mouse erythrocytes): 1.46%; cell survival rate at low concentrations (RAW 264.7 cells): over 100%; cells producing filamentous substances (A. veronii ACCC61732 [7]): over 50%; activity retained in SIF ([8]; 200 μg/mL peptide, inhibition zone against A. veronii ACCC61732): 100%; state after incubation in SIF ([8]; 1 h): remained intact
CC(C)[C@@H]1NC(=O)CNC(=O)[C@H](CC(N)=O)NC(=O)[C@H](CCCNC(=N)N)NC(=O)[C@H](Cc2ccc(O)cc2)NC(=O)[C@H](C(C)C)NC(=O)[C@@H](NC(=O)[C@@H](NC(=O)[C@H](CC(N)=O)NC(=O)[C@H](Cc2c[nH]c3ccccc23)NC(=O)[C@H](C)NC(=O)[C@H](Cc2ccccc2)NC(=O)CN)C(C)C)CSSC[C@@H](C(=O)N[C@@H](Cc2cnc[nH]2)C(=O)N[C@@H](CCCNC(=N)N)C(=O)N[C@@H](CCCNC(=N)N)C(=O)N[C@@H](C)C(=O)N[C@@H](CC(N)=O)C(N)=O)NC(=O)[C@H](C(C)C)NC(=O)[C@H](CCCNC(=N)N)NC1=O [N6NH2] | do not affect the double helix of genomic DNA | – | 85.9 | 58 | 41.9 | 4 (≈ 1.62 µM) | 4 (≈ 1.62 µM) | 4 (≈ 1.62 µM) | 4 (≈ 1.62 µM) | 4 (≈ 1.62 µM) | 4 | 4 | 4 | 4 | 4 | MIC after treatment at pH 2 (A. veronii ACCC61732 [5]; glycine-HCl buffer pH 2.0, 3 h): 4 μg/mL; MIC after treatment at pH 4 (A. veronii ACCC61732 [5]; sodium acetate buffer pH 4.0, 3 h): 4 μg/mL; MIC after proteinase K treatment (proteinase K): > 128 µg/mL
